The source of these data is US20110082087A1, “COMPOUNDS FOR TREATING PAIN” (Edificio ICAT, priority 2008, published 2011).

The nature of series [1]: Partition into lipid bilayer vesicles (fluorescence titration). The class given is physicochemical. Particulars: mammal-mimetic lipid bilayer vesicle; numerical treatment of fluorescence titration. The source says: We performed biophysical studies using fluorescent methodologies in order to characterize the interaction of KTP-NH2 with liposomes representing human cell membranes (Santos N. C., Prieto M. and Castanho M. A. 2003. Quantifying molecular partition into model systems of biomembranes: an emphasis on optical spectroscopic methods. Biochim Biophys Acta 1612: 123-135.). A clear interaction of KTP-NH2 with the lipid bilayers was observed. […] When titrated with a mammal-mimetic lipid bilayer vesicle (circles), the fluorescence intensity of the phenolic moiety increases due to insertion in the apolar environment created by the lipids. The POPC system mimetizes the external layer of human cell membranes, whereas POPG lipidic mixture mimetizes the internal layer of human cell membranes.
In order to confirm that these plasma-stable KTP-NH2 derivatives maintained their lipophilicity, their potential interaction with human cell membranes was assessed. Again, we performed biophysical studies using fluorescent methodologies (Santos N. C., Prieto M. and Castanho M. A. 2003. Quantifying molecular partition into model systems of biomembranes: an emphasis on optical spectroscopic methods. Biochim Biophys Acta 1612: 123-135.).

Another series relates to rats. Put plainly: Comparison with morphine, behavioural nociception tests and behaviour observation. The class given is in vivo, rat. The note with it: rats; i.p. As to the method: (§1) In vivo behavioural anti-nociception tests were carried out in rats (Wister, male). Unless otherwise stated, compounds were administered by intra-peritoneal (i.p.) injection. For most assays, the Tail Flick and the Hot Plate tests were used.
The analgesic potential of KTP-NH2 was also verified by comparison with well-known, widely-used analgesic molecules: ibuprofen and morphine.
From FIG. 12 it is possible to observe that the efficacy of 3 mg/100 g of KTP-NH2 is similar to that observed with 0.5 mg/100 g dose of morphine.

The test system of series [2] is rats (Wister, male). Put plainly: Tail Flick test. The class given is in vivo, rat. Particulars: i.p.; rat. On the procedure: as §1
The tail-flick test (D'Amour F. E., Smith D. L. 1941. A method for determining the loss of pain sensation. J Pharmacol Exp Ther 1941; 72:74-79) is a standard investigative tool for pain and analgesia assessment in rodents. It is based on a spinal reflex response of the tail to radiant heat. Pain sensitivity in rats was measured as they responded to the application of radiant heat to a small area of their tails. The rat's tail was placed over a window located on a platform and subjected to irradiation by an intense light beam (10 W). When the rat feels discomfort, it flicks its tail which automatically stops the timer. The reaction time from activation of the light beam to the tail flick is automatically presented on a digital display. A cut-off time of 24 s was applied. Animal reaction time is a measurement of animal resistance to pain and is used to measure efficacy of analgesics.
For orientation: Thermal pain tests record how soon the animal reacts.

Series [3] deals with rats (Wister, male). Put plainly: Increasing-temperature Hot Plate test. The class given is in vivo, rat. Particulars: i.p.; rat. As to the method:
as §1
The hot-plate test (Eddy N. B and Leimbach D. 1953. Synthetic analgesics II. Dithienylbutenyl and dithienylbutylamines J. Pharmacol. Exp. Ther. 45: 339) evaluates a supraspinally integrated response in the form of thermal pain reflexes due to footpad contact with a heated surface. During the experiments, the animal is confined in a removable clear acrylic compartment where the latency time to the first hind paw or/and jumping responses are measured. […] The response is the licking of the hindpaw, and the corresponding plate temperature represents the recorded nociceptive end-point. The advantage of Increasing-Temperature Hot-Plate test over the standard constant-temperature hot-plate test is the higher sensitivity and the lack of influences of pre-exposure to the hot-plate before testing. Animal reaction temperature is a measurement of animal resistance to pain and is used to measure efficacy of analgesics.

The nature of series [4]: Plasma serum stability of analogues. The class given is in vitro ADME. The note with it: Human Serum, 1-hour incubation, read-out: Mean Parent Remaining (%); for remaining at 1 h, 400 uM: test concentration 400 uM; for remaining at 1 h, 800 uM: test concentration 800 uM. On the procedure: These analogues were tested for plasma serum stability, in comparison with KTP-NH2.

With “Ibuprofen-L-Tyrosyl-L-Arginine-OH [Ibu-KTP]”, in series [1], the “local concentration in the model membrane of mammals relative to surrounding bulk aqueous phase” value is recorded as about 333 fold. Consider `CN1CC[C@]23c4c5ccc(O)c4O[C@H]2[C@@H](O)C=C[C@H]3[C@H]1C5` [morphine, reference compound], for which the “alterations in behavior (secondary effects)” value in the series with rats is reported as “several alterations in behavior, like scratching”. Consider `N=C(N)NCCC[C@H](NC(=O)[C@@H](N)Cc1ccc(O)cc1)C(=O)O` [KTP, L-Tyrosyl-L-Arginine, reference compound], for which the “effect on tail flick latency” value in the series on rats (Wister, male) [2] is “very small effect”. In addition, the “effect in hot plate test” value in the series with rats (Wister, male) [3] is given as “very small effect”. Take `N=C(N)NCCC[C@@H](NC(=O)[C@@H](N)Cc1ccc(O)cc1)C(N)=O` [L-Tyr-D-Arg-NH2, L-Tyrosyl-D-Arginine-NH2]: in series [4], the share remaining – broadly, what is left of the initial amount, in per cent – at 1 h, 400 uM turned out to be 78.8%. Consider `CC(C)Cc1ccc(C(C)C(=O)N[C@H](Cc2ccc(O)cc2)C(=O)N[C@@H](CCCNC(=N)N)C(N)=O)cc1` (stereo partly drawn) [Ibu-D-Tyr-L-Arg-NH2, Ibuprofen-D-Tyrosyl-L-Arginine-NH2], for which the share remaining at 1 h, 800 uM in series [4] was 94.1%. For the compound `CN[C@@H](Cc1ccc(O)cc1)C(=O)N[C@H](CCCNC(=N)N)C(N)=O` [Me-L-Tyr-D-Arg-NH2, Methyl-L-Tyrosyl-D-Arginine-NH2], the amount remaining at 1 h, 400 uM in series [4] amounted to 98.5%. In the case of `CC(C)Cc1ccc([C@H](C)C(=O)N[C@@H](Cc2ccc(O)cc2)C(=O)N[C@@H](CCCNC(=N)N)C(N)=O)cc1` [Ibu-KTP-NH2, Ibuprofen-L-Tyrosyl-L-Arginine-NH2], the fraction remaining at 1 h, 800 uM in series [4] was 51.4%. With `N=C(N)NCCC[C@@H](NC(=O)[C@H](N)Cc1ccc(O)cc1)C(N)=O` [D-Tyr-D-Arg-NH2, D-Tyrosyl-D-Arginine-NH2], the share remaining at 1 h, 400 uM in series [4] worked out at 98.4%.

As to `N=C(N)NCCC[C@H](NC(=O)[C@H](N)Cc1ccc(O)cc1)C(N)=O` [D-Tyr-L-Arg-NH2, D-Tyrosyl-L-Arginine-NH2], in series [4], the share remaining at 1 h, 400 uM amounted to 98%. On to `CN[C@@H](Cc1ccc(O)cc1)C(=O)N[C@@H](CCCNC(=N)N)C(N)=O` [Me-L-Tyr-L-Arg-NH2, Methyl-L-Tyrosyl-L-Arginine-NH2], for which, in series [4], the amount remaining at 1 h, 400 uM came out at 89%.
